The source made the active and inactive calls.
Experiments:
[1] = molecular target: Cytochrome P450 3A4 (Homo sapiens, UniProt P08684);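 note: CYP3A4 tested as one member of a cytochrome P450 panel screen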
[2] = molecular target: Keap1/Nrf2 (Homo sapiens, UniProt Q14145); experiment: disruptors of Keap1 binding to Nrf2 peptide – biochemical, fluorescence polarization, cherry-picked samples, dose response (AID 588683)
[3] = molecular target: T1, Dual specificity protein phosphatase 6 (Rattus norvegicus, UniProt Q64346); experiment: inhibition of rat DUSP6 enzyme activity – biochemical, in vitro, primary screen (AID 425)
T1 sequence (Q64346 whole entry): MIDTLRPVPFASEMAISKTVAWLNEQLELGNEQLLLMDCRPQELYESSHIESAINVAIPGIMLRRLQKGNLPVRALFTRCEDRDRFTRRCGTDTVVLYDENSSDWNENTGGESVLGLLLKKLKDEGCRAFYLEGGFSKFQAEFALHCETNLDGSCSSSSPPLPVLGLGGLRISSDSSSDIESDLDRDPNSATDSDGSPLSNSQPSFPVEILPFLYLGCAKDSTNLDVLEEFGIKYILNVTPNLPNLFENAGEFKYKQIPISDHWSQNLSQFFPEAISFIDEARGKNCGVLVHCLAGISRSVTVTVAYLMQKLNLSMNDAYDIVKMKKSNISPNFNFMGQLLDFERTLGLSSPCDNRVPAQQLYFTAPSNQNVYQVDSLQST

[4] = molecular target: T2, Dual specificity protein phosphatase 3 (Homo sapiens, UniProt P51452); experiment: VHR1 phosphatase inhibitors, primary screen, biochemical, absorbance, uHTS (AID 1654)
[5] = molecular target: T2, Dual specificity protein phosphatase 3; experiment: VHR1 phosphatase inhibitors, biochemical (AID 1878)
[6] = molecular target: T3, High affinity choline transporter 1 (Homo sapiens, UniProt Q9GZV3); experiment: human choline transporter blockers, potency – cell-based, 5-point CRC, membrane potential dye, dose response (AID 504840); format: functional
T3 sequence (Q9GZV3 whole entry): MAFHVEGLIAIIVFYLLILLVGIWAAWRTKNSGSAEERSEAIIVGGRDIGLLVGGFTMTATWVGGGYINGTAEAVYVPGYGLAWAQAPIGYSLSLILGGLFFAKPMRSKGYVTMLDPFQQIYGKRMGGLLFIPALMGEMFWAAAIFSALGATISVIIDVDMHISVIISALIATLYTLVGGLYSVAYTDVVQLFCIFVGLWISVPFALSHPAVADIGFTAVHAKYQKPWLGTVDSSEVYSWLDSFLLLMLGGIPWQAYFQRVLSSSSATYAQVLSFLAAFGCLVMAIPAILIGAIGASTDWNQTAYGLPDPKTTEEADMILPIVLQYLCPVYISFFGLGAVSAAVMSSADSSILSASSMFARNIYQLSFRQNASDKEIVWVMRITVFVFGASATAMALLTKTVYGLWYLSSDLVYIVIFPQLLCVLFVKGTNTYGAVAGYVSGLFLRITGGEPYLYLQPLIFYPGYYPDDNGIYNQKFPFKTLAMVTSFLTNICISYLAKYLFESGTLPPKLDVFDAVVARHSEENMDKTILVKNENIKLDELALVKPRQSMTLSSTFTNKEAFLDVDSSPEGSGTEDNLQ

[7] = A Cell Based Secondary Assay To Explore Cytotoxicity of Compounds that Sensitize Mycobacterium Tuberculosis to Beta-Lactam Antibiotics.; format: functional
[8] = Counterscreen for AddAB inhibitors: absorbance-based bacterial cell-based high throughput dose response assay for inhibitors of bacterial viability. [Related pubchem assays (depositor defined):AID435030, AID449728, AID449731, AID488942, AID488955, AID488956]; format: functional
[9] = molecular target: T4, Exodeoxyribonuclease V (Escherichia coli (strain K12), UniProt P04993+P07648+P08394); experiment: RecBCD inhibition via phage-restricted bacterial growth – absorbance, V66 E. coli, mutant T4 phage, counter-screen for AddAB inhibitor project, dose response (AID 492957); format: functional, cell-based, Escherichia coli str. K-12 substr. MG1655
T4 sequence (P04993 whole entry): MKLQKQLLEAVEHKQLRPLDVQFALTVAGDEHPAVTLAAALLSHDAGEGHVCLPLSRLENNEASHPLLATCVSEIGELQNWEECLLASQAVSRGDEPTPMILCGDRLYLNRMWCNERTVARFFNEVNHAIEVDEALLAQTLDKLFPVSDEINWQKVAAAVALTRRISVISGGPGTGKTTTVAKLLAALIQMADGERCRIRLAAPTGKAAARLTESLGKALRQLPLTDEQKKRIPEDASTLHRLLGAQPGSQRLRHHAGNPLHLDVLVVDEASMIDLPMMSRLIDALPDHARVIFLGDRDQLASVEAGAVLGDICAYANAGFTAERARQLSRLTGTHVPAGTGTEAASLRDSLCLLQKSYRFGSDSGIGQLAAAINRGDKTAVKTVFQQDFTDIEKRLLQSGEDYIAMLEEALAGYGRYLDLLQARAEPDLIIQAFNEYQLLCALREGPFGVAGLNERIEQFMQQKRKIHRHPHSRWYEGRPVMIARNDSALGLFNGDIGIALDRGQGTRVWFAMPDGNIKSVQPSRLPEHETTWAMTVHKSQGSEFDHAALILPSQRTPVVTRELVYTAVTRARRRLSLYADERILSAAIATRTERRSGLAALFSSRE
T4 sequence (P07648 whole entry): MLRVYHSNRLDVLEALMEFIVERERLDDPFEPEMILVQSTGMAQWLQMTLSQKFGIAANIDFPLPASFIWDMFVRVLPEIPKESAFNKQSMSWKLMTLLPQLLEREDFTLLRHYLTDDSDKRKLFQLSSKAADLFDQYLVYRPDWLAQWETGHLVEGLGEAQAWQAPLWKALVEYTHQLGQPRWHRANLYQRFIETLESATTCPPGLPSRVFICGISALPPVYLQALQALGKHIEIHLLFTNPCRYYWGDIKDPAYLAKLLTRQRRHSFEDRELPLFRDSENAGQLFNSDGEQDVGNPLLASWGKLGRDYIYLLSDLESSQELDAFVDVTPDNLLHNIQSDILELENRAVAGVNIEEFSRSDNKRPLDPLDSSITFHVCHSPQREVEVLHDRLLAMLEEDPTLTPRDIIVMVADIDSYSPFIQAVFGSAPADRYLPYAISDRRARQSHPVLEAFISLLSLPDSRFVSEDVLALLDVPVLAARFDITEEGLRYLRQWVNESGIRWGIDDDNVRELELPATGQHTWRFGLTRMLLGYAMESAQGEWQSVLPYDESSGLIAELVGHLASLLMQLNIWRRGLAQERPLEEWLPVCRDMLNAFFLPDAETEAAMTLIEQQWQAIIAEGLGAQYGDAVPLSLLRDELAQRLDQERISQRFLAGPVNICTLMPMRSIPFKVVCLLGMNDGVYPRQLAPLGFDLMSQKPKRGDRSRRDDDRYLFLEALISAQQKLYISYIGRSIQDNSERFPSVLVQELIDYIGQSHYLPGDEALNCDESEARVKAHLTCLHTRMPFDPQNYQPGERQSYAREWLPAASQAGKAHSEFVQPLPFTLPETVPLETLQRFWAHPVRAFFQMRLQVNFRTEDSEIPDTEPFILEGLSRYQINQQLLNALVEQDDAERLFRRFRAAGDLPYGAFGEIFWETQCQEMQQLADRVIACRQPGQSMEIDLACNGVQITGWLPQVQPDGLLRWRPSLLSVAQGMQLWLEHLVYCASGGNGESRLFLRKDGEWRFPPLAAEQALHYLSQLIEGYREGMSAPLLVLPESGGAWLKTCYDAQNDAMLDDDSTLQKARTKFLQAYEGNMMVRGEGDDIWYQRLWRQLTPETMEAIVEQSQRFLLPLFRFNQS
T4 sequence (P08394 whole entry): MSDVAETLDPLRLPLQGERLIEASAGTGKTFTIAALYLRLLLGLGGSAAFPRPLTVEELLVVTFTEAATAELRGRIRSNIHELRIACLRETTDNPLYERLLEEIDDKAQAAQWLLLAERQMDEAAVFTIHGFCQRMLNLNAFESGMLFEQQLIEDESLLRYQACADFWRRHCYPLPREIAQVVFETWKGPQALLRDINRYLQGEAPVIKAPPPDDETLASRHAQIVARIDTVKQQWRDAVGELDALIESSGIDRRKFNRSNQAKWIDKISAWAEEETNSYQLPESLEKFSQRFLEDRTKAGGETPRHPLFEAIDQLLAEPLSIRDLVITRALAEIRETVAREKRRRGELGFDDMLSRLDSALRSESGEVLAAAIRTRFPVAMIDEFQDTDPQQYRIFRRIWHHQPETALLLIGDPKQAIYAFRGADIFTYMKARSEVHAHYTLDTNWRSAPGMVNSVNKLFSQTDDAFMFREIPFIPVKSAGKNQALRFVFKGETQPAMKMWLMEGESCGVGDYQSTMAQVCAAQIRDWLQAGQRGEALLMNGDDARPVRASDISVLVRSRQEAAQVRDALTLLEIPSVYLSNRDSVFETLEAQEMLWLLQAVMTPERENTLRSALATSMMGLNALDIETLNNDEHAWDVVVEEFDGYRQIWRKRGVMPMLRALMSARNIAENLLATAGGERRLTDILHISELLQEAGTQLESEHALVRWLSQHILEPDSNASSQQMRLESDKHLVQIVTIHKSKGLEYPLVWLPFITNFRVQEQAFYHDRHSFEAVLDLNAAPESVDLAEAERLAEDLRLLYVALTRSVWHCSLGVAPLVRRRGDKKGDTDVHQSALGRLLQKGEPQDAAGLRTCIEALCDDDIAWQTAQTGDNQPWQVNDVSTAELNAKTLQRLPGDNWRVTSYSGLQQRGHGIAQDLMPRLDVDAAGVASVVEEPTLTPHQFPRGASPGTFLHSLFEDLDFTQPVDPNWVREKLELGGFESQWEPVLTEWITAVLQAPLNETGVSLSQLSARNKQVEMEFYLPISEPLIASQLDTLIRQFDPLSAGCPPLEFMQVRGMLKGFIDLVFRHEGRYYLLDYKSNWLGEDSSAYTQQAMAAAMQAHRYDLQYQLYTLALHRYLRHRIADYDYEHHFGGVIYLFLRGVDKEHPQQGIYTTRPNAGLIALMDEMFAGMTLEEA

[10] = molecular target: Glucose-6-phosphate 1-dehydrogenase (Homo sapiens, UniProt P11413); experiment: inhibition of Homo sapiens G6PD, dose series – biochemical, fluorescence, selectivity assay for P. falciparum G6PD inhibitor project, dose response (AID 504792); format: functional
[11] = molecular target: Kappa-type opioid receptor (Homo sapiens, UniProt P41145); experiment: SAR analysis of small molecule agonists of the kappa opioid receptor via a luminescent beta-arrestin assay - Set 3. [Related pubchem assays (depositor defined):AID1777, AID1785, AID1786, AID1966, AID2133, AID2136, AID2284, AID2500]; format: functional
[12] = molecular target: Cytochrome P450 2C9 (Homo sapiens, UniProt P11712)
[13] = molecular target: T1, Dual specificity protein phosphatase 6; format: functional
[14] = molecular target: T5, Tyrosine-protein phosphatase non-receptor type 7 (Homo sapiens, UniProt P35236); experiment: redox-active compounds inhibiting HePTP phosphatase – biochemical, fluorescence, mechanism study (AID 2068); format: functional
T5 sequence (P35236 whole entry): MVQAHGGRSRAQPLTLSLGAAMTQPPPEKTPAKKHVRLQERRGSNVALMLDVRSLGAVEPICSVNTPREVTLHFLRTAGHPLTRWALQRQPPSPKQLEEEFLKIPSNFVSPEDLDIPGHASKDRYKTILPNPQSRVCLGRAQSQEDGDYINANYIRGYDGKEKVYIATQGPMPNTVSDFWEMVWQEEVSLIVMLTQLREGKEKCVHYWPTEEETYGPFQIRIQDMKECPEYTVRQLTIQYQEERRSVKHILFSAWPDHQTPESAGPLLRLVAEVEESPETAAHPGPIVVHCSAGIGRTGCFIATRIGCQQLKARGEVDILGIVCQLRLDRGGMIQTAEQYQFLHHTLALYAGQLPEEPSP

[15] = molecular target: T2, Dual specificity protein phosphatase 3; experiment: SAR VHR1 absorbance Assay for In Vitro dose response studies. [Related pubchem assays (depositor defined):AID1654, AID1661, AID1878, AID1992, AID2004]
[16] = molecular target: T2, Dual specificity protein phosphatase 3; experiment: SAR VHR1 Fluorescent Assay for In Vitro dose response studies. [Related pubchem assays (depositor defined):AID1654, AID1661, AID1878, AID1992, AID2004, AID2070, AID2085]; format: functional

T2 sequence (P51452 whole entry): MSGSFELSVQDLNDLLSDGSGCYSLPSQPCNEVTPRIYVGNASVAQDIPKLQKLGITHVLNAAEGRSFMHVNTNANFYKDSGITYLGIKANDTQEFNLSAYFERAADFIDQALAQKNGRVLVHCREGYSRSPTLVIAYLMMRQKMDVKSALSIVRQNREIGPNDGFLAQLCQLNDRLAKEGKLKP
Sequence of Cytochrome P450 3A4 (P08684 whole entry): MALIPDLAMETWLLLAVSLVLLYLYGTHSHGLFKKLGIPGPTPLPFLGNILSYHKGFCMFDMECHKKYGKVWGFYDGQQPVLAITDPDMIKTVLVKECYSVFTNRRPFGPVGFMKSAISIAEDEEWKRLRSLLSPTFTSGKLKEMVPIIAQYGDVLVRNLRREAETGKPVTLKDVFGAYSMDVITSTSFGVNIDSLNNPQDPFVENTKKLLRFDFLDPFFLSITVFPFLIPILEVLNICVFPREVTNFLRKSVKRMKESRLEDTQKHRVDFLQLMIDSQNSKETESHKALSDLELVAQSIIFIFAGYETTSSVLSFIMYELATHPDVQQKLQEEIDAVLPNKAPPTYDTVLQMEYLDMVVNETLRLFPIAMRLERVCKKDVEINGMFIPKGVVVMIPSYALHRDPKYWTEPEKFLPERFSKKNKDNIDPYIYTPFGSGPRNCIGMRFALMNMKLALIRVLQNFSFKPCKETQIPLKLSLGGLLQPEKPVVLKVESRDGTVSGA
Sequence of Kappa-type opioid receptor (P41145 whole entry): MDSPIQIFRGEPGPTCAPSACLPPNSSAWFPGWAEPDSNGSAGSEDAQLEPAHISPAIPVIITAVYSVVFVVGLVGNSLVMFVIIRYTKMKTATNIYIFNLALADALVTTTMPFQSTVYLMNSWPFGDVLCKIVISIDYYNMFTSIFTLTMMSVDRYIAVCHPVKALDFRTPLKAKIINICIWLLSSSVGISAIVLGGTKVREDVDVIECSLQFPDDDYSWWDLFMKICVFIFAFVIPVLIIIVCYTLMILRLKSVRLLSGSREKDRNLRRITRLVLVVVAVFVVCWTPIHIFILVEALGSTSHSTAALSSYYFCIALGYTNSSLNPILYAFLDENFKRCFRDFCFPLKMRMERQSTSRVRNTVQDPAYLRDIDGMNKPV
Sequence of Glucose-6-phosphate 1-dehydrogenase (P11413 whole entry): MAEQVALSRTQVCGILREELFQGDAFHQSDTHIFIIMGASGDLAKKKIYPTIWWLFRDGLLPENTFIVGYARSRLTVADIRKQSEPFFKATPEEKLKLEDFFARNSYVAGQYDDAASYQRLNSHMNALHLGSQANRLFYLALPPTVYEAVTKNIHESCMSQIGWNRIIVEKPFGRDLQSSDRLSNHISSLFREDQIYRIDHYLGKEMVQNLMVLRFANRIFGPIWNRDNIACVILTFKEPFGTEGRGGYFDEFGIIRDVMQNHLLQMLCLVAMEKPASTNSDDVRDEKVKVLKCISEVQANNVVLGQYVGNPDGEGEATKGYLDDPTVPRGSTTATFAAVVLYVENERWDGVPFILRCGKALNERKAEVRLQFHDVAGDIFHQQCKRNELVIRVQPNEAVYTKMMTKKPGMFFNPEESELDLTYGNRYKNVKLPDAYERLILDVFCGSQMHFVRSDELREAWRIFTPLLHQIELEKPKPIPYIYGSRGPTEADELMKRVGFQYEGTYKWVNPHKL
Sequence of Keap1/Nrf2 (Q16236 whole entry): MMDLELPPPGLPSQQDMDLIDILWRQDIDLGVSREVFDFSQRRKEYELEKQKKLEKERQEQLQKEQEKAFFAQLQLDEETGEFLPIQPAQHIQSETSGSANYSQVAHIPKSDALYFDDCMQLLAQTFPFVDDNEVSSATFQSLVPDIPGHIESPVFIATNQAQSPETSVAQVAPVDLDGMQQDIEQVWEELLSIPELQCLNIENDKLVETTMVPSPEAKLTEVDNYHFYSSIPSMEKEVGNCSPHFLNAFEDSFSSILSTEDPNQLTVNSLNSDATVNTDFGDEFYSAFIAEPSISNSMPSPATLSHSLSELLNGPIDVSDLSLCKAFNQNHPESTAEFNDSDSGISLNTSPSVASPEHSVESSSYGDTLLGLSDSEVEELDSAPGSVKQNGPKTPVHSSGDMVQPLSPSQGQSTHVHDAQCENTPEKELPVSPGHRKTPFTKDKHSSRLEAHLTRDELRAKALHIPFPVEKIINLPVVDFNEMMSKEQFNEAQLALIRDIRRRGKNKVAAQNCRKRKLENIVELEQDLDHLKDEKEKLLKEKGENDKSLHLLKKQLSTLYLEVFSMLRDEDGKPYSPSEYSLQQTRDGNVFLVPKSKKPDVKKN
Sequence of Keap1/Nrf2 (Q14145 whole entry): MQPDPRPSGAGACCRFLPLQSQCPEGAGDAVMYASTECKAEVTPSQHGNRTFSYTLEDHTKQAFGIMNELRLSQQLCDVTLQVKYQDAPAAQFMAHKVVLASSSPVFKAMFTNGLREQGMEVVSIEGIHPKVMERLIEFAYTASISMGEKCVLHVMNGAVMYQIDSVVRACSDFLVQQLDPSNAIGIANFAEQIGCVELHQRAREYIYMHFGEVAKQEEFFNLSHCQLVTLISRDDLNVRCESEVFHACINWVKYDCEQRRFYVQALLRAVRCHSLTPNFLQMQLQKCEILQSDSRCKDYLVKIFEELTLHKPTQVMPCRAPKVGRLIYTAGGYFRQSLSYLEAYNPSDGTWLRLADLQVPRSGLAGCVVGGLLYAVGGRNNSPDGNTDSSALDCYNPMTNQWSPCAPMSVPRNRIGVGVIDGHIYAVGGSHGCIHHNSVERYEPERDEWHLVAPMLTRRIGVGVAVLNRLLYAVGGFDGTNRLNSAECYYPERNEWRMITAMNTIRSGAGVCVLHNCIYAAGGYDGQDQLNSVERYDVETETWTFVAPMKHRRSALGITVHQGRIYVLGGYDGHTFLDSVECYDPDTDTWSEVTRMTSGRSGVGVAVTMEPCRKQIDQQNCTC
Sequence of Cytochrome P450 2C9 (P11712 whole entry): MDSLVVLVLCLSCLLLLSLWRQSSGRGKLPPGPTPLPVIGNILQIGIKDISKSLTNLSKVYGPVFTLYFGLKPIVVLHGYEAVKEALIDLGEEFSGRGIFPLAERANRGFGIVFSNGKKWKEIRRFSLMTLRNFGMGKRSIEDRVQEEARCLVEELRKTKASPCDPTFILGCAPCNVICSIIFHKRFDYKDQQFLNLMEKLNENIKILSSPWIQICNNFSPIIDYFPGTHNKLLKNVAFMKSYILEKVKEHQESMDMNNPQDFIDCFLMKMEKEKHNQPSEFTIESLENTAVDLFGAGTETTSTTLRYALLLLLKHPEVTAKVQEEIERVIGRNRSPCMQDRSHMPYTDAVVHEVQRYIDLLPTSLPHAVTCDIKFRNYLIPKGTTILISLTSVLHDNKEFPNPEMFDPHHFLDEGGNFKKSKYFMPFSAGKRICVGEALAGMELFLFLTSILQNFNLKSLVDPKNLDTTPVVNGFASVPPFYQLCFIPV

## Cn1cccc1C(=O)N1CCC2(CC1)CN(c1ccccn1)C2
[1]
  AC50: inconclusive

## Cc1cc(C)c(C)c(S(=O)(=O)Nc2cccc(S(=O)(=O)Nc3ccccc3C(=O)O)c2)c1C
[2]
  AC50: > 52 µM (inactive)

## Oc1c(Br)cc(/C=N/n2c(S)nnc2-c2ccccc2)c(Br)c1O
[3]
  IC50: 90.3 µM (active)
[4]
  IC50: < 1.23 µM (inactive)
[5]
  IC50: 2.39 µM (active)

## COc1ccc(C(=O)NC2CCCCC2)cc1OC1CCN(C(C)C)CC1
[6]
  IC50: 17.4 µM (active)

## CN1CCN(S(=O)(=O)c2ccc(NC(=O)c3ccc(Br)s3)cc2)CC1
[7]
  CC50: > 40 µM (active)
[6]
  IC50: 16.6 µM (active)

## Cc1cc2c(c(=O)o1)C(c1ccc([N+](=O)[O-])o1)C(C#N)=C(N)O2 (centres undefined)
[8]
  IC50: 102 µM (inactive)
[9]
  IC50: > 119 µM (inactive)

## COc1c(O)c(O)c2oc(-c3ccccc3)cc(=O)c2c1OC
[8]
  IC50: > 119 µM (inactive)
[9]
  IC50: > 119 µM (inactive)
[10]
  IC50: > 80 µM (inactive)

## Cc1cccc(C)c1OCc1cc(C(=O)N(C)Cc2nc3ccccc3[nH]2)no1
[8]
  IC50: > 119 µM (inactive)
[9]
  IC50: > 119 µM (inactive)

## COc1cccc(Cn2c(=O)c(-c3ccc(Cl)cc3)nc3cnc(N4CCN(C)CC4)nc32)c1
[1]
  AC50: inconclusive

## Clc1ccc(CSc2nnc(-c3ccccn3)n2Cc2ccccc2)cc1Cl
[11]
  EC50: 1.24 µM (active)

## Clc1ccc(CSc2nnc(-c3ccccn3)n2Cc2cccnc2)cc1Cl
[11]
  EC50: 0.756 µM (active)

## CC(=O)N1CCC2(CC1)CCN(C(c1ccccc1)c1ccccc1)CC2
[1]
  AC50: inconclusive
[12]
  AC50: 39.8 µM (inconclusive)

## CC(C)NC(=S)c1cn(CCOc2ccccc2)c2ccccc12
[13]
  IC50: > 100 µM (inactive)
[14]
  IC50: > 100 µM (inactive)
[15]
  IC50: > 100 µM (inactive)
[16]
  IC50: > 100 µM (inactive)

Source: ChEMBL document CHEMBL1201862, “PubChem BioAssay data set” (2004)
